Earlier results, collected in patent US20090191194A1, “INHIBITION OF PROTEIN KINASE C ALPHA FOR THE TREATMENT OF CARDIOVASCULAR DISEASES” (Phenos GmbH, priority 2002, published 2009).

What was measured:
PKC-alpha = PKC-alpha (Homo sapiens, UniProt P17252); conditions: higher TPA concentration, for example 1.6 μM
[1] = biological target: cellular protein kinase C-alpha (Homo sapiens, UniProt P17252); conditions: by changing the phosphorylation state of PKC-alpha
[2] = system: protein kinase C isoform beta II
[3] = system: protein kinase C isoform beta I
[4] = system: protein kinase C isoform alpha

## CCCCCCCCCCCCCC(=O)O[C@@H]1[C@@H](C)[C@@]2(O)[C@@H](C=C(CO)C[C@]3(O)C(=O)C(C)=C[C@@H]23)[C@@H]2C(C)(C)[C@]12OC(C)=O [TPA, 12-o-tetradecanoylphorbol-13-acetate]
PKC-alpha
  PKC-alpha expression: completely inhibits

## Cc1c(C)c2c(c(C)c1O)CC[C@@](C)(CCC[C@H](C)CCC[C@H](C)CCCC(C)C)O2 [alpha-tocopherol]
[1]
  inactivation of cellular protein kinase C-alpha: inactivate

## cyclosporine A
[2]
  expression of protein kinase C isoform beta II: reduces the expression
[3]
  expression of protein kinase C isoform beta I: reduces the expression
[4]
  expression of protein kinase C isoform alpha: reduces the expression
